Results on three compounds are retold here after patent publication US10800791B2, “Triazole ACC inhibitors and uses thereof” (Gilead Apollo, LLC, priority 2015, dated 2020).

As usually defined, the IC50 is the concentration at which inhibition is half-maximal. Broadly, the MIC is the lowest concentration that inhibits growth of the organism.

One experiment addresses human (hACC2) (Homo sapiens, UniProt O00763). Put plainly: In vitro ACC inhibition assay (ADP-Glo), hACC2. It is filed as biochemical. The settings on record: 5 nM ACC2, 20 μM ATP, 20 μM acetyl-CoA. How it is done:
The detailed procedure is as follows. […] 10 μL ADP glo reagent was added. […] 20 μL kinase detection reagent was added.

The next experiment concerns C. albicans. Put plainly: Antifungal Activity Assay (broth microtiter MIC), C. albicans. It counts as cell-based, Candida albicans. Conditions: Candida albicans, ATCC90028, 48 h. The method, boiled down:
(§1)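 Broth microdilution per CLSI M27-A3 in RPMI 1640+MOPS, inoculum 2.5×10^3 CFU/mL final from overnight Sabouraud dextrose agar cultures at 35° C. Compounds diluted from DMSO stock to 128 μg/mL in water. MIC read visually versus growth control at 48 h.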

A further experiment relates to C. parapsilosis. As to the kind of experiment: Antifungal Activity Assay (broth microtiter MIC), C. parapsilosis. It is filed as cell-based, Candida parapsilosis. Conditions: Lodderomyces parapsilosis, ATCC22019, 48 h. The method, boiled down: as §1
The test system of another experiment is Botrtyis cinerea (Bc). As to the kind of experiment: Growth inhibition assay of fungal pathogens, Bc. It counts as cell-based. The settings on record: 48 h. The method, boiled down: (§2)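 Percent inhibition derived at 48 hours from OD600 and visual scores versus 2% DMSO control, with media+DMSO blank as background. Spore inocula in 17% V8 medium were sized from 48 h growth curves; compounds tested at final 50/10/2 or 2/0.4/0.08 ppm.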

In experiment [1] the test system is Collectotrichum graminicola (Cg). As to the kind of experiment: Growth inhibition assay of fungal pathogens, Cg. It is filed as cell-based. Conditions: 48 h. The gist of the method: as §2
For the next experiment, the system named is Diplodia maydis (Dm). Put plainly: Growth inhibition assay of fungal pathogens, Dm. It counts as cell-based. The settings on record: Stenocarpella maydis, 48 h. The gist of the method:
as §2

Experiment [2] concerns Phytophthora capsici (Pc). Put plainly: Growth inhibition assay of fungal pathogens, Pc. It is filed as cell-based. Conditions: 48 h. The method, boiled down: as §2
The next experiment concerns Rhizoctonia solani (Rs). As to the kind of experiment: Growth inhibition assay of fungal pathogens, Rs. It counts as cell-based. The settings on record: 48 h.
A further experiment has as its system Septoria tritici (St). As to the kind of experiment: Growth inhibition assay of fungal pathogens, St. It counts as cell-based. Conditions: Zymoseptoria tritici, 48 h. The gist of the method: as §2
A further experiment deals with fungal (fACC2) (UniProt Q00955). Conditions: read-out: fACC2 (in vitro ACC2 Inhibition Assay, IC50), ADP-Glo, 5 nM ACC2, 20 μM ATP, 20 μM acetyl-CoA. On the technique in general: In ADP-Glo the light output rises with the ADP produced.
Setting [3] is: Table 3a, ATCC 90028, 3 replicates, MIC recorded at 48 h, read-out: MIC, C. albicans ATCC 90028.
Where [4] appears, read: Table 3b (additional results), ATCC 90028, 3 replicates, MIC recorded at 48 h, read-out: MIC, C. albicans ATCC 90028.
The mark [5] stands for this setting: Table 3a, ATCC 22019, 3 replicates, MIC recorded at 48 h, read-out: MIC, C. parapsilosis ATCC 22019.
The mark [6] stands for this setting: Table 3b (additional results), ATCC 22019, 3 replicates, MIC recorded at 48 h, read-out: MIC, C. parapsilosis ATCC 22019.
Setting [7] is: Botrtyis cinerea, growth inhibition at 48 hours vs 2% DMSO control, read-out: Concentration at 90% Inhibition Bc.
Setting [8] is: Botrtyis cinerea, growth inhibition vs 2% DMSO control at 48 hours, read-out: Concentration at 90% Inhibition Bc.
Where [9] appears, read: Collectotrichum graminicola, growth inhibition at 48 hours vs 2% DMSO control, read-out: Concentration at 90% Inhibition Cg.
[10] abbreviates: Collectotrichum graminicola, growth inhibition vs 2% DMSO control at 48 hours, read-out: Concentration at 90% Inhibition Cg.
Where [11] appears, read: Diplodia maydis, growth inhibition at 48 hours vs 2% DMSO control, read-out: Concentration at 90% Inhibition Dm.
Where [12] appears, read: Diplodia maydis, growth inhibition vs 2% DMSO control at 48 hours, read-out: Concentration at 90% Inhibition Dm.
Where [13] appears, read: growth inhibition at 48 hours vs 2% DMSO control, read-out: Concentration at 90% Inhibition Pc.
[14] abbreviates: growth inhibition vs 2% DMSO control at 48 hours, read-out: Concentration at 90% Inhibition Pc.
Where [15] appears, read: mycelial plugs, growth inhibition at 48 hours vs 2% DMSO control, read-out: Concentration at 90% Inhibition Rs.
The mark [16] stands for this setting: mycelial plugs, growth inhibition vs 2% DMSO control at 48 hours, read-out: Concentration at 90% Inhibition Rs.
Where [17] appears, read: Septoria tritici, growth inhibition at 48 hours vs 2% DMSO control, read-out: Concentration at 90% Inhibition St.
The mark [18] stands for this setting: Septoria tritici, growth inhibition vs 2% DMSO control at 48 hours, read-out: Concentration at 90% Inhibition St.

In brackets after ≈: the same amount, converted by molar mass. Where two headings read alike, the source gives them in different places.

Sequence of fungal (fACC2) (Q00955 whole entry): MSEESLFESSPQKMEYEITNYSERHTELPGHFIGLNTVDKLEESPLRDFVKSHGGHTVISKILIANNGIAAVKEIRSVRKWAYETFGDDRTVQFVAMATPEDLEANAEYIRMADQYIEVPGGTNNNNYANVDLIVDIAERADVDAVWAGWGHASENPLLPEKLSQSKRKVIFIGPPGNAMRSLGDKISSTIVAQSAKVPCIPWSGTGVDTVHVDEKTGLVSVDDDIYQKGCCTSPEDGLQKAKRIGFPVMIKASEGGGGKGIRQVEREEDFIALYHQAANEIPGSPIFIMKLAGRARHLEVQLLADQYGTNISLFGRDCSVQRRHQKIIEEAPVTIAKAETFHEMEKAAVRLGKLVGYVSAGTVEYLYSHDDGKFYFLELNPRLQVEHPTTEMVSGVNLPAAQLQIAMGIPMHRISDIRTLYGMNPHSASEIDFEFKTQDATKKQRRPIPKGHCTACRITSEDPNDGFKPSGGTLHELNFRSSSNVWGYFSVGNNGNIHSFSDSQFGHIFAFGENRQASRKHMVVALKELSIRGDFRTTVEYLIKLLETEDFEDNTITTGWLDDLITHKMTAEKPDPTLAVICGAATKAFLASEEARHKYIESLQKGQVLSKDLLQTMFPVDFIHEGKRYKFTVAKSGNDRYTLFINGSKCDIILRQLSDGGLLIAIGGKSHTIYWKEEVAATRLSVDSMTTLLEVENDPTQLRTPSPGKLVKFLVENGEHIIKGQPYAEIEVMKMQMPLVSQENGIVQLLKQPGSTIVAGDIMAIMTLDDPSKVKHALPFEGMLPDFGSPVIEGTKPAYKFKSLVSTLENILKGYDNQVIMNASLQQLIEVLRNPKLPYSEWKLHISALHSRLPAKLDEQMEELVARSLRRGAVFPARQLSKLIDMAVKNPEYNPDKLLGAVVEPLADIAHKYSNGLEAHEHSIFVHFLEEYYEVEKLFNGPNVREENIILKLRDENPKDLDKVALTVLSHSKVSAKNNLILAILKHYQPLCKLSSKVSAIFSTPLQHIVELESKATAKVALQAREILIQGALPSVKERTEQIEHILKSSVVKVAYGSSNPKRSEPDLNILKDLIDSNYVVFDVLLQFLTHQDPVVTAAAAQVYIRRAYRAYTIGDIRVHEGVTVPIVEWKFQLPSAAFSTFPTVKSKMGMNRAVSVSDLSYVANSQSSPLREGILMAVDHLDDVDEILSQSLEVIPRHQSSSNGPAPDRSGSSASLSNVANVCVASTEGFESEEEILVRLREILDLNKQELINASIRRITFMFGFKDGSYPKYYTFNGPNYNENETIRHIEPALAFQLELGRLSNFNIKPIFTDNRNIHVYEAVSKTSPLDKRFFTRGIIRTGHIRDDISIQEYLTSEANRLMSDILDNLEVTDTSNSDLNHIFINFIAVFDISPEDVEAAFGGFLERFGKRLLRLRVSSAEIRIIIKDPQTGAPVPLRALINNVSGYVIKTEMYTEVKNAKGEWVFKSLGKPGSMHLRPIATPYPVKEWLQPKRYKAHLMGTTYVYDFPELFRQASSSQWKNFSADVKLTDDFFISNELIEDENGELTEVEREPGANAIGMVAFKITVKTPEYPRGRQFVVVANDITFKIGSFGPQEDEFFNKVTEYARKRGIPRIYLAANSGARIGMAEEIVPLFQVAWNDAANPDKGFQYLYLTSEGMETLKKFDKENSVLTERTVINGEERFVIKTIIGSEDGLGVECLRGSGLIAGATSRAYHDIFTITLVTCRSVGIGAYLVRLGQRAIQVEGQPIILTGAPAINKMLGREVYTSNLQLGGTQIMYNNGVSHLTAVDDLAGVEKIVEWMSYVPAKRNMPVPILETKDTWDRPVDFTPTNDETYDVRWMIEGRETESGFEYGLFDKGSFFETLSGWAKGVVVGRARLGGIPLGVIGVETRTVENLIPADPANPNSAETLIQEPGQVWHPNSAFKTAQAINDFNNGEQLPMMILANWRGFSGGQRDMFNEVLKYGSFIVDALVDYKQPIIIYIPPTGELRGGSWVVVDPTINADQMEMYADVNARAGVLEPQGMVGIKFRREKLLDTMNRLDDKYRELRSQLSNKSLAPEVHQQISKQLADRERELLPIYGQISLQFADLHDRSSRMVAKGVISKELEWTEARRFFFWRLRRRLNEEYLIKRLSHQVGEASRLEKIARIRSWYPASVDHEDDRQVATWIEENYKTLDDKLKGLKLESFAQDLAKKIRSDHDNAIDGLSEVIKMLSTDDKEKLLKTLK
Sequence of human (hACC2) (O00763 whole entry): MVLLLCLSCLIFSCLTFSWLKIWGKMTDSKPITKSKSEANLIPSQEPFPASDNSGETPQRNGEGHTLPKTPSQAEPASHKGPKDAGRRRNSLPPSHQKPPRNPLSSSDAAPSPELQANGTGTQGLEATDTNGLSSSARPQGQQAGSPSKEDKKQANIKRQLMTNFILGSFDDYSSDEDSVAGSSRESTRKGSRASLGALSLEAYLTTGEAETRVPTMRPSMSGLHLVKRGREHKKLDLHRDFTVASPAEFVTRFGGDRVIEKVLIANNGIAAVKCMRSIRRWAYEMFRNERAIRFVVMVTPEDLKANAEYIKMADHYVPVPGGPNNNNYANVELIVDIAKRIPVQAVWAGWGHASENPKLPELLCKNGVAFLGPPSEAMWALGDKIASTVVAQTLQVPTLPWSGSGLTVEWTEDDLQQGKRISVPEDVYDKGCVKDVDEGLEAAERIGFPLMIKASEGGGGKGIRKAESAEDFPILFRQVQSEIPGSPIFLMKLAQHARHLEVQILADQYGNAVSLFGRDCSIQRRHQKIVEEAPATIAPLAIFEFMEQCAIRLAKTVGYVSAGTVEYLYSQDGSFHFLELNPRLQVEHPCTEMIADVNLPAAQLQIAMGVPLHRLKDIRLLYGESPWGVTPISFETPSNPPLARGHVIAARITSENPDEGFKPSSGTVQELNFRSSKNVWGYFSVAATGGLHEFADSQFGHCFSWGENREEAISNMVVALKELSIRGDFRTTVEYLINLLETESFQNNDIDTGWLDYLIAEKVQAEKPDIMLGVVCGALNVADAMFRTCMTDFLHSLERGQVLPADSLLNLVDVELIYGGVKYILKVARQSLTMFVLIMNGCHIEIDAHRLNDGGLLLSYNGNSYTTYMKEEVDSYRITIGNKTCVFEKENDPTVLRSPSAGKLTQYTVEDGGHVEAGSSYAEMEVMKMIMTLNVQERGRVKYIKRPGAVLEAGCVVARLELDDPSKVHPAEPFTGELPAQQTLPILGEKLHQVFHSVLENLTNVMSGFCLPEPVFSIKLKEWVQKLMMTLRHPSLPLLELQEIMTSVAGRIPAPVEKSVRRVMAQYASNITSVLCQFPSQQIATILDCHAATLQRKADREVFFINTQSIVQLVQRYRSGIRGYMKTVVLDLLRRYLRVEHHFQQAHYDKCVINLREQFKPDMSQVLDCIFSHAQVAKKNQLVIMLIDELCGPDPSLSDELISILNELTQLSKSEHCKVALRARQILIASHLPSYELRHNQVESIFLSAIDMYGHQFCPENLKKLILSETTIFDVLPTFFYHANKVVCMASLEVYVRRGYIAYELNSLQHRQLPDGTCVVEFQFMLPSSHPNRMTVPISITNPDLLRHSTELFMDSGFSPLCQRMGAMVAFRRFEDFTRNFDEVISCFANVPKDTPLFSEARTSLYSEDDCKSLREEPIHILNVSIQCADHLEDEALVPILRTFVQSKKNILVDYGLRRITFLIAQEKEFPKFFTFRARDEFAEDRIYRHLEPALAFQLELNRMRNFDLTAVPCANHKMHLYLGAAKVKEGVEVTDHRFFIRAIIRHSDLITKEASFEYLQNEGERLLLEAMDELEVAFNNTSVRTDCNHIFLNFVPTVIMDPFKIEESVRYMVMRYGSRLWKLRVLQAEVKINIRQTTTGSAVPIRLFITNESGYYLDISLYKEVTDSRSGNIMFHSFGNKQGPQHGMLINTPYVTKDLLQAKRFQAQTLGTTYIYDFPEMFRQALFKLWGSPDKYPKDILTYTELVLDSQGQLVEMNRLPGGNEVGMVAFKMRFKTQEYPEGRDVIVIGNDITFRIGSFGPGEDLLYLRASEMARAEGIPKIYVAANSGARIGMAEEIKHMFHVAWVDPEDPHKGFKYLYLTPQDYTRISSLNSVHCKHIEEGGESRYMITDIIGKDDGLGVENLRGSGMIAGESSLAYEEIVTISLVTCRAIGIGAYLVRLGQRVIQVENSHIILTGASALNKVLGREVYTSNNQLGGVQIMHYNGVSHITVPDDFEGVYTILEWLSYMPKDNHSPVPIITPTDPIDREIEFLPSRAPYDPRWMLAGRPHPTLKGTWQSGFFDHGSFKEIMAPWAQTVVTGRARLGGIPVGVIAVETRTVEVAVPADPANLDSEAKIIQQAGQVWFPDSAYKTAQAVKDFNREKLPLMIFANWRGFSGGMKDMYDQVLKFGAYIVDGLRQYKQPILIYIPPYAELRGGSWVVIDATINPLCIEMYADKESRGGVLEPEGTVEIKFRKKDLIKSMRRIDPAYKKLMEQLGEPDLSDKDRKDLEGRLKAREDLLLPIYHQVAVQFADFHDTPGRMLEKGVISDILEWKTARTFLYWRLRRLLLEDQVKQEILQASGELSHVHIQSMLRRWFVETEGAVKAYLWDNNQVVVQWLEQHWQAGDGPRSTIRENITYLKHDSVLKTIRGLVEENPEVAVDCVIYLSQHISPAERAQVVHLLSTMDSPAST

For the compound `COc1ccc(F)cc1[C@H](Cn1c(=O)n(C(C)(C)C(=O)N2CCCC2)c(=O)c2c(C)c(-n3nccn3)sc21)OCCO` [Compound I-44, (R)-1-(2-(5-fluoro-2-methoxyphenyl)-2-(2-hydroxyethoxy)ethyl)-5-methyl-3-(2-methyl-1-oxo-1-(pyrrolidin-1-yl)propan-2-yl)-6-(2H-1,2,3-triazol-2-yl)thieno[2,3-d]pyrimidine-2,4(1H,3H)-dione], the IC50 was 5 to 10 nM against human (hACC2) (Table 2a); 5 to 10 nM against human (hACC2) (Table 2b, additional results); 0.4 to 1 nM on fungal (fACC2) (Table 2a); 0.3 to 1 nM at fungal (fACC2) (Table 2b, additional results). Further, the MIC in the experiment on C. albicans (setting [3]) lay in the range of 2.1 to 4 µg/mL (≈ 3.5 to 6.66 µM); in the experiment with C. albicans (setting [4]), 1.01 to 2 µg/mL (≈ 1.68 to 3.33 µM); in the experiment with C. parapsilosis (setting [5]) it was 2.1 to 4 µg/mL (≈ 3.5 to 6.66 µM); in the experiment on C. parapsilosis (setting [6]), 1.01 to 2 µg/mL (≈ 1.68 to 3.33 µM). For the same compound, the IC90 with Botrtyis cinerea (Bc) (setting [7]) amounted to 2 µg/mL (≈ 3.33 µM); with Botrtyis cinerea (Bc) (setting [8]), 2 µg/mL (≈ 3.33 µM); in experiment [1] (setting [9]) it was 2 µg/mL (≈ 3.33 µM); in experiment [1] (setting [10]), 2 µg/mL (≈ 3.33 µM); in the experiment on Diplodia maydis (Dm) (setting [11]) it was 2 µg/mL (≈ 3.33 µM); in the experiment with Diplodia maydis (Dm) (setting [12]), 10 µg/mL (≈ 16.6 µM). The IC90 in [2] (setting [13]) was > 50 µg/mL; in [2] (setting [14]), > 50 µg/mL; in the experiment on Rhizoctonia solani (Rs) (setting [15]), 2 µg/mL (≈ 3.33 µM); in the experiment on Rhizoctonia solani (Rs) (setting [16]), 10 µg/mL (≈ 16.6 µM); with Septoria tritici (St) (setting [17]), > 50 µg/mL; with Septoria tritici (St) (setting [18]), > 50 µg/mL.

In the case of `COc1ccc(F)cc1[C@H](Cn1c(=O)n(C(C)(C)C(=O)NC(C)C)c(=O)c2c(C)c(-n3nccn3)sc21)OC[C@@H](C)O` [Compound I-45, 2-(1-((R)-2-(5-fluoro-2-methoxyphenyl)-2-((R)-2-hydroxypropoxy)ethyl)-5-methyl-2,4-dioxo-6-(2H-1,2,3-triazol-2-yl)-1,4-dihydro-thieno[2,3-d]pyrimidin-3(2H)-yl)-N-isopropyl-2-methylpropanamide], the IC50 against human (hACC2) (Table 2a) fell in the range of 10 to 40 nM; against human (hACC2) (Table 2b, additional results), 10 to 40 nM; at fungal (fACC2) (Table 2a), 1 to 5 nM; on fungal (fACC2) (Table 2b, additional results), 1 to 5 nM. The MIC with C. albicans (read-out: MIC, C. albicans ATCC 90028, Table 3a, 3 replicates, MIC recorded at 48 h) fell in the range of 0.25 to 1 µg/mL (≈ 0.415 to 1.66 µM); with C. albicans (read-out: MIC, C. albicans ATCC 90028, Table 3b (additional results), 3 replicates, MIC recorded at 48 h) it was 0.25 to 1 µg/mL (≈ 0.415 to 1.66 µM); with C. parapsilosis (read-out: MIC, C. parapsilosis ATCC 22019, Table 3a, 3 replicates, MIC recorded at 48 h), 0.25 to 1 µg/mL (≈ 0.415 to 1.66 µM); with C. parapsilosis (read-out: MIC, C. parapsilosis ATCC 22019, Table 3b (additional results), 3 replicates, MIC recorded at 48 h), 1.01 to 2 µg/mL (≈ 1.68 to 3.32 µM). Moreover, the IC90 in the experiment with Botrtyis cinerea (Bc) (read-out: Concentration at 90% Inhibition Bc, Botrtyis cinerea, growth inhibition at 48 hours vs 2% DMSO control) was determined as 2 µg/mL (≈ 3.32 µM); with Botrtyis cinerea (Bc) (read-out: Concentration at 90% Inhibition Bc, Botrtyis cinerea, growth inhibition vs 2% DMSO control at 48 hours), 2 µg/mL (≈ 3.32 µM); in experiment [1] (read-out: Concentration at 90% Inhibition Cg, Collectotrichum graminicola, growth inhibition at 48 hours vs 2% DMSO control) it was 0.4 µg/mL (≈ 0.664 µM); in [1] (read-out: Concentration at 90% Inhibition Cg, Collectotrichum graminicola, growth inhibition vs 2% DMSO control at 48 hours) it was 0.4 µg/mL (≈ 0.664 µM); with Diplodia maydis (Dm) (read-out: Concentration at 90% Inhibition Dm, Diplodia maydis, growth inhibition at 48 hours vs 2% DMSO control), 0.4 µg/mL (≈ 0.664 µM); in the experiment with Diplodia maydis (Dm) (read-out: Concentration at 90% Inhibition Dm, Diplodia maydis, growth inhibition vs 2% DMSO control at 48 hours), 0.4 µg/mL (≈ 0.664 µM). Besides, the IC90 worked out at 2 µg/mL (≈ 3.32 µM) in experiment [2] (read-out: Concentration at 90% Inhibition Pc, Phytophthora capsici, growth inhibition at 48 hours vs 2% DMSO control); 10 µg/mL (≈ 16.6 µM) in experiment [2] (read-out: Concentration at 90% Inhibition Pc, Phytophthora capsici, growth inhibition vs 2% DMSO control at 48 hours); 0.08 µg/mL (≈ 0.133 µM) in the experiment with Rhizoctonia solani (Rs) (read-out: Concentration at 90% Inhibition Rs, Rhizoctonia solani, mycelial plugs, growth inhibition at 48 hours vs 2% DMSO control); 0.08 µg/mL (≈ 0.133 µM) in the experiment with Rhizoctonia solani (Rs) (read-out: Concentration at 90% Inhibition Rs, Rhizoctonia solani, mycelial plugs, growth inhibition vs 2% DMSO control at 48 hours); 2 µg/mL (≈ 3.32 µM) in the experiment with Septoria tritici (St) (read-out: Concentration at 90% Inhibition St, Septoria tritici, growth inhibition at 48 hours vs 2% DMSO control); 10 µg/mL (≈ 16.6 µM) in the experiment on Septoria tritici (St) (read-out: Concentration at 90% Inhibition St, Septoria tritici, growth inhibition vs 2% DMSO control at 48 hours).

For the compound `COc1ccc(F)cc1[C@H](Cn1c(=O)n(C(C)(C)C(=O)N2CCCC2)c(=O)c2c(C)c(-n3nccn3)sc21)OC[C@@H](C)O` [Compound I-46, 1-((R)-2-(5-fluoro-2-methoxyphenyl)-2-((R)-2-hydroxypropoxy)ethyl)-5-methyl-3-(2-methyl-1-oxo-1-(pyrrolidin-1-yl)propan-2-yl)-6-(2H-1,2,3-triazol-2-yl)thieno[2,3-d]pyrimidine-2,4(1H,3H)-dione], the IC50 fell in the range of 5 to 10 nM on human (hACC2) (Table 2a); 5 to 10 nM on human (hACC2) (Table 2b, additional results); 1 to 5 nM at fungal (fACC2) (Table 2a); 1 to 5 nM on fungal (fACC2) (Table 2b, additional results). Further, the MIC in the experiment with C. albicans (setting [3]) fell in the range of 0.25 to 1 µg/mL (≈ 0.407 to 1.63 µM); in the experiment with C. albicans (setting [4]), 0.25 to 1 µg/mL (≈ 0.407 to 1.63 µM); in the experiment with C. parapsilosis (setting [5]) it was 1.1 to 2 µg/mL (≈ 1.79 to 3.25 µM); in the experiment on C. parapsilosis (setting [6]), 1.01 to 2 µg/mL (≈ 1.64 to 3.25 µM). Further, the IC90 was found to be 2 µg/mL (≈ 3.25 µM) with Botrtyis cinerea (Bc) (setting [7]); 2 µg/mL (≈ 3.25 µM) with Botrtyis cinerea (Bc) (setting [8]); 0.4 µg/mL (≈ 0.651 µM) in experiment [1] (setting [9]); 0.4 µg/mL (≈ 0.651 µM) in [1] (setting [10]); 2 µg/mL (≈ 3.25 µM) with Diplodia maydis (Dm) (setting [11]); 2 µg/mL (≈ 3.25 µM) in the experiment with Diplodia maydis (Dm) (setting [12]). The IC90 was > 50 µg/mL in [2] (setting [13]); > 50 µg/mL in experiment [2] (setting [14]); 0.4 µg/mL (≈ 0.651 µM) with Rhizoctonia solani (Rs) (setting [15]); 0.4 µg/mL (≈ 0.651 µM) in the experiment on Rhizoctonia solani (Rs) (setting [16]); > 50 µg/mL in the experiment on Septoria tritici (St) (setting [17]); > 50 µg/mL in the experiment on Septoria tritici (St) (setting [18]).
